In US8945540B2, “Compositions for enhancing the antibacterial activity of myeloperoxidase and methods of use thereof” (Exoxemis, Inc., priority 2008, dated 2015):

How the values were obtained:
Assay in all cases: MIC, modified CLSI broth microdilution
Aeromonas hydrophilia = assay type: cell-based; conditions: 5 clinical isolates, range for all strains tested
Experimental: (§1) Modifications were made to the standard broth microdilution method to accommodate the rapid in vitro activity of the Enhanced MPO Solution as described below. Each antimicrobial agent and Concentrate solution was diluted in double strength cation-adjusted Mueller-Hinton Broth (CAMHB) and dispensed in mircrodilution trays. All β-hemolytic streptococci were tested in double strength CAMHB supplemented with 5% lysed horse blood. Isolates were prepared by suspending several colonies (four to six) from an overnight culture on Trypticase Soy Agar (TSA) with 5% sheep blood into sterile saline and the density adjusted to a 0.5 McFarland standard (˜10^8 CFU/ml). Standardized bacterial suspensions were further diluted in double strength Diluent solution so that approximately 5×10^5 CFU/ml was mixed with serial drug dilutions. […] The microdilution trays were incubated in ambient air at 35° C. for 18 to 24 h.

E. coli = assay type: cell-based, Escherichia coli
Excerpt: All clinical isolates were obtained from the culture collection of Eurofins Medinet Anti-Infective Services (Herndon, Va.), and represent diverse geographical regions. They were originally derived from clinical specimens and identified using standard microbiological methods (see Table 33 below for details). Escherichia coli ATCC 25922, Staphylococcus aureus ATCC 25923, S. aureus ATCC 29213, Pseudomonas aeruginosa ATCC 27853, and Enterococcus faecalis ATCC 29212 were used as quality control strains for the Enhanced MPO Solution and comparator agents to validate the modified Clinical and Laboratory Standards Institute (CLSI, formally NCCLS) broth microdilution method.
Modifications were made to the standard broth microdilution method to accommodate the rapid in vitro activity of the Enhanced MPO Solution as described below. Each antimicrobial agent and Concentrate solution was diluted in double strength cation-adjusted Mueller-Hinton Broth (CAMHB) and dispensed in mircrodilution trays. All β-hemolytic streptococci were tested in double strength CAMHB supplemented with 5% lysed horse blood. Isolates were prepared by suspending several colonies (four to six) from an overnight culture on Trypticase Soy Agar (TSA) with 5% sheep blood into sterile saline and the density adjusted to a 0.5 McFarland standard (˜10^8 CFU/ml). Standardized bacterial suspensions were further diluted in double strength Diluent solution so that approximately 5×10^5 CFU/ml was mixed with serial drug dilutions. The addition of Diluent solution to the Concentrate solution activates the enzyme system, which in turn exerts its rapid mode of action. The microdilution trays were incubated in ambient air at 35° C. for 18 to 24 h.
MIC ranges were established for the Enhanced MPO Solution by testing over 20 replicates of one lot of the Enhanced MPO Solution against S. aureus ATCC 29213 and E. coli ATCC 25922. Quality control parameters were then determined for the Enhanced MPO Solution by testing three lots of the Concentrate solution used for preparation of the final Enhanced MPO Solution formulation. Testing was performed in duplicate against S. aureus ATCC 29213 and E. coli ATCC 25922. The effects of modifying the standard broth microdilution test were also assessed with antibiotics with known quality control limits to validate the CLSI broth microdilution method.

Enterobacter cloacae = assay type: cell-based; conditions: 21 clinical isolates
Excerpt: (§2) All clinical isolates were obtained from the culture collection of Eurofins Medinet Anti-Infective Services (Herndon, Va.), and represent diverse geographical regions. […] Escherichia coli ATCC 25922, Staphylococcus aureus ATCC 25923, S. aureus ATCC 29213, Pseudomonas aeruginosa ATCC 27853, and Enterococcus faecalis ATCC 29212 were used as quality control strains for the Enhanced MPO Solution and comparator agents to validate the modified Clinical and Laboratory Standards Institute (CLSI, formally NCCLS) broth microdilution method.
(§3) Modifications were made to the standard broth microdilution method to accommodate the rapid in vitro activity of the Enhanced MPO Solution as described below. Each antimicrobial agent and Concentrate solution was diluted in double strength cation-adjusted Mueller-Hinton Broth (CAMHB) and dispensed in mircrodilution trays. All β-hemolytic streptococci were tested in double strength CAMHB supplemented with 5% lysed horse blood. Isolates were prepared by suspending several colonies (four to six) from an overnight culture on Trypticase Soy Agar (TSA) with 5% sheep blood into sterile saline and the density adjusted to a 0.5 McFarland standard (˜10^8 CFU/ml). Standardized bacterial suspensions were further diluted in double strength Diluent solution so that approximately 5×10^5 CFU/ml was mixed with serial drug dilutions. […]

Klebsiella pneumoniae = assay type: cell-based; conditions: 31 clinical isolates
Excerpt: as §2, §3

P. aeruginosa = assay type: cell-based; conditions: Pseudomonas aeruginosa, 53 clinical isolates
Experimental: as §1

Proteus mirabilis = assay type: cell-based; conditions: 24 clinical isolates
Excerpt: as §2, §3

Pasteurella multocida = assay type: cell-based; conditions: 5 clinical isolates, range for all strains tested
Experimental: as §1

Citrobacter freundii = assay type: cell-based; conditions: 20 clinical isolates
Excerpt: as §2, §3

Acinetobacter species = assay type: cell-based; conditions: Acintobacter spp., 29 clinical isolates
Excerpt: as §2, §3

[1] = Escherichia coli, 52 clinical isolates

gentamicin
MIC Range (Aeromonas hydrophilia): 1 to 4 µg/mL
MIC by the modified method versus published quality control ranges (E. coli; E. coli ATCC 25922, inoculum prepared in Diluent solution): within previously published quality control ranges
MIC 50% (E. coli; [1]): 4 µg/mL
MIC 90% (E. coli; [1]): >32 µg/mL
MIC 50% (Enterobacter cloacae): 2 µg/mL
MIC 90% (Enterobacter cloacae): 8 µg/mL
MIC 50% (Klebsiella pneumoniae): 4 µg/mL
MIC 90% (Klebsiella pneumoniae): >32 µg/mL
MIC 50% (P. aeruginosa): 4 µg/mL
MIC 90% (P. aeruginosa): 16 µg/mL
MIC 50% (Proteus mirabilis): 8 µg/mL
MIC 90% (Proteus mirabilis): 8 µg/mL
MIC Range (Pasteurella multocida): 2 to 16 µg/mL
MIC 50% (Citrobacter freundii): 2 µg/mL
MIC 90% (Citrobacter freundii): 4 µg/mL
MIC 50% (Acinetobacter species): 8 µg/mL
MIC 90% (Acinetobacter species): >32 µg/mL
